Measurements published in DBAASP.
≈ marks a conversion by molar mass, not a printed value.

Assays:
Test in all cases: ≥ marks a high value that may be exact or a test limit, other limits are often not marked, values filed in µg/mL are converted to µM
[1] = system: Bacillus subtilis ATCC 6051
Candida krusei ATCC 6258 = system: Candida krusei ATCC 6258
Candida albicans SC5314 = system: Candida albicans SC5314
[2] = system: Candida albicans ATCC 90028
[3] = system: Candida parapsilosis ATCC 22019
[4] = system: Staphylococcus aureus ATCC 6538P
Escherichia coli K-12 = system: Escherichia coli K-12
[5] = system: Pseudomonas aeruginosa PAO1
[6] = system: Salmonella enterica subsp. enterica serovar Typhimurium ATCC 14028
[7] = system: Enterococcus faecalis ATCC 29212
[8] = system: Staphylococcus aureus ATCC 25923
[9] = system: Pseudomonas aeruginosa ATCC 27853
[10] = system: Streptococcus pyogenes ATCC 19615
[11] = system: Klebsiella pneumoniae ATCC 13883
Bacillus subtilis = system: Bacillus subtilis
Escherichia coli = system: Escherichia coli
[12] = system: Staphylococcus aureus USA 300 LAC
[13] = system: Staphylococcus aureus USA 300
[14] = system: Escherichia coli ATCC 25922

## CC(C)C[C@H](NC(=O)[C@H](C)N)C(=O)N[C@@H](Cc1c[nH]c2ccccc12)C(=O)N[C@@H](Cc1cnc[nH]1)C(=O)N[C@@H](Cc1cnc[nH]1)C(=O)N[C@@H](CC(C)C)C(=O)N[C@@H](CC(C)C)C(=O)N[C@@H](Cc1cnc[nH]1)C(=O)N[C@@H](Cc1cnc[nH]1)C(=O)N[C@@H](CC(C)C)C(=O)N[C@@H](CC(C)C)C(=O)N[C@@H](Cc1cnc[nH]1)C(=O)N[C@@H](CO)C(=O)N[C@@H](C)C(=O)N[C@@H](Cc1cnc[nH]1)C(=O)N[C@@H](Cc1cnc[nH]1)C(=O)N[C@@H](CC(C)C)C(=O)NCC(N)=O [ALWHHLLHHLLHSAHHLG]
[1]
  MIC: 1.88 µM (≈ 3.99 µg/mL)

## CC[C@H](C)[C@H](NC(=O)CN)C(=O)N[C@@H](Cc1c[nH]c2ccccc12)C(=O)N[C@@H](CCCCN)C(=O)N[C@@H](CCCCN)C(=O)N[C@@H](Cc1c[nH]c2ccccc12)C(=O)N[C@H](C(=O)N[C@@H](CCCCN)C(=O)N[C@@H](CCCCN)C(=O)N[C@H](C(=O)N[C@H](C(=O)N[C@@H](CC(N)=O)C(=O)N[C@H](C(=O)N[C@@H](CC(C)C)C(=O)N[C@@H](CCCCN)C(=O)N[C@@H](CC(N)=O)C(=O)N[C@@H](CC(C)C)C(=O)N[C@@H](Cc1ccccc1)C(N)=O)C(C)C)C(C)C)C(C)C)[C@@H](C)CC [GIWKKWIKKVVNVLKNLF]
Candida krusei ATCC 6258
  MIC: 14.5 µM (≈ 32 µg/mL)
Candida albicans SC5314
  MIC: 7.23 µM (≈ 16 µg/mL)
[2]
  MIC: 14.5 µM (≈ 32 µg/mL)
[3]
  MIC: 7.23 µM (≈ 16 µg/mL)

## CC(C)C[C@H](NC(=O)[C@H](CC(C)C)NC(=O)[C@H](CCCCN)NC(=O)[C@H](CC(C)C)NC(=O)[C@H](CC(C)C)NC(=O)[C@H](CCCCN)NC(=O)[C@H](CCCCN)NC(=O)[C@H](CC(C)C)NC(=O)[C@@H](N)CC(C)C)C(N)=O [LLKKLLKLL]
[4]
  MIC: 1.56 µM (≈ 1.69 µg/mL)
[1]
  MIC: 1.56 µM (≈ 1.69 µg/mL)
Escherichia coli K-12
  MIC: 1.56 µM (≈ 1.69 µg/mL)
[5]
  MIC: 1.56 µM (≈ 1.69 µg/mL)

## CC(C)C[C@H](N)C(=O)N[C@@H](Cc1ccc(O)cc1)C(=O)N[C@@H](CCCN=C(N)N)C(=O)N[C@@H](CCCN=C(N)N)C(=O)N[C@@H](CCCN=C(N)N)C(=O)N[C@@H](Cc1ccccc1)C(=O)N[C@H](C(=O)N[C@H](C(=O)NCC(=O)N[C@@H](CCCN=C(N)N)C(N)=O)C(C)C)C(C)C [LYRRRFVVGR]
[6]
  MIC: 200 µM (≈ 264 µg/mL)
[7]
  MIC: 25 µM (≈ 33 µg/mL)
[8]
  MIC: 25 µM (≈ 33 µg/mL)
[9]
  MIC: 200 µM (≈ 264 µg/mL)
[10]
  MIC: ≥ 50 µM
[11]
  MIC: ≥ 200 µM
Bacillus subtilis
  MIC: ≥ 50 µM
Escherichia coli
  MIC: 50 µM (≈ 66 µg/mL)

## CC[C@H](C)[C@H](NC(=O)[C@H](CC(=O)O)NC(=O)[C@H](Cc1c[nH]c2ccccc12)NC(=O)[C@H](CC(C)C)NC(=O)[C@@H](N)CCCN=C(N)N)C(=O)N[C@H](C(=O)N[C@@H](CCCN=C(N)N)C(=O)N[C@@H](CCCN=C(N)N)C(=O)N[C@@H](Cc1c[nH]c2ccccc12)C(=O)N[C@H](C(=O)NCC(=O)N[C@@H](Cc1c[nH]c2ccccc12)C(=O)N[C@@H](CC(C)C)C(N)=O)C(C)C)C(C)C [RLWDIVRRWVGWL]
[12]
  MIC: 4.56 µM (≈ 8 µg/mL)
[8]
  MIC: 2.28 µM (≈ 4 µg/mL)
[5]
  MIC: 9.12 µM (≈ 16 µg/mL)
[13]
  MIC: 1.14 µM (≈ 2 µg/mL)

## CC[C@H](C)[C@H](NC(=O)[C@H](CCCN=C(N)N)NC(=O)[C@H](CCCN=C(N)N)NC(=O)[C@H](CC(C)C)NC(=O)[C@H](Cc1c[nH]c2ccccc12)NC(=O)[C@H](Cc1c[nH]c2ccccc12)NC(=O)[C@@H](N)Cc1c[nH]c2ccccc12)C(=O)N[C@@H](Cc1c[nH]c2ccccc12)C(N)=O [WWWLRRIW]
[12]
  MIC: 3.1 µM (≈ 4.03 µg/mL)
[5]
  MIC: > 50 µM
[14]
  MIC: 6.2 µM (≈ 8.06 µg/mL)
[11]
  MIC: 25 µM (≈ 32.5 µg/mL)
[13]
  MIC: 3.1 µM (≈ 4.03 µg/mL)

## CC[C@H](C)[C@H](NC(=O)[C@H](CCCCN)NC(=O)[C@H](CCCN=C(N)N)NC(=O)[C@H](CC(C)C)NC(=O)[C@H](Cc1c[nH]c2ccccc12)NC(=O)[C@H](Cc1c[nH]c2ccccc12)NC(=O)[C@H](Cc1c[nH]c2ccccc12)NC(=O)[C@@H](N)Cc1c[nH]c2ccccc12)C(N)=O [WWWWLRKI]
[12]
  MIC: 2.16 µM (≈ 2.74 µg/mL)
[14]
  MIC: 12.5 µM (≈ 15.9 µg/mL)
[11]
  MIC: 8.8 µM (≈ 11.2 µg/mL)
